How the values were obtained:
[1] = Compound stability in rat liver microsomes; type: in vitro ADME; conditions: pH 7.4; for half-life at 5 μM: rat liver microsomes 0.5 mg protein/mL, compound 5 μM, NADPH 1.0 mM, 37° C., read-out: Rat T1/2; for CLint scaled at 5 μM: rat liver microsomes, in vivo CLint extrapolated
Experimental: (§1) Human or rat liver microsomes incubations were conducted in duplicate in polypropylene tubes. The typical incubation mixtures consisted of human or rat liver microsomes (0.5 mg protein/mL), compounds of interest (5 μM) and NADPH (1.0 mM) in a total volume of 200 μL potassium phosphate buffer (PBS, 100 mM, pH 7.4). Compounds were dissolved in DMSO and diluted with PBS such that the final concentration of DMSO was 0.05%. The enzymatic reactions were commenced with the addition of […] after a 3-min preincubation and incubated in a water bath open to the air at 37° C. Reactions were terminated at various time points (0, 5, 10, 15, 30, 60 min) by adding equal volume of ice-cold acetonitrile. The samples were stored at […] until LC/MS/MS assays.
(§2) The concentrations of compounds in the incubation mixtures of human or rat liver microsomes were determined by a LC/MS/MS method. The ranges of the linearity in the concentration range were determined for each tested compounds.
(§3) A parallel incubation was performed using denatured microsomes as the negative control, and reactions were terminated at various time points (0, 15, 60 min) after incubation at 37° C.
(§4) Dextromethorphan (70 μM) was selected as the positive control, and reactions were terminated at various time points (0, 5, 10, 15, 30, 60 min) after incubation at 37° C. Both positive and negative control samples were included in each assay to ensure the integrity of the microsomal incubation system.
(§5) The concentrations of compounds in human or rat liver microsome incubations were plotted as a percentage of the relevant zero time point control for each reaction. The in vivo CLint were extrapolated (ref.: Naritomi, Y.; Terashita, S.; Kimura, S.; Suzuki, A.; Kagayama, A.; and Sugiyama, Y.; Prediction of human hepatic clearance from in vivo animal experiments and in vitro metabolic studies with liver microsomes from animals and humans. Drug Metab. Dispos., 2001, 29: 1316-1324).

[2] = Pharmacokinetics after intravenous and oral administration in rats; type: in vivo, rat; conditions: iv dosing, 1 mg/kg; for AUC(0-t) / half-life / Vd: rat, plasma; for Vd: read-out: Vss
Experimental: The compounds disclosed herein are assessed in pharmacokinetic studies in mice, rats, dogs or monkeys. The compounds are administered as a water solution, 2% HPMC+1% TWEEN®80 in water solution, 5% DMSO+5% solutol in saline, 4% MC suspension or capsule. For the intravenous administration, the animals are generally given at 1 or 2 mg/kg dose. For the oral (p.o.) dosing, mice and rats are generally given 5 or 10 mg/kg dose, and dogs and monkeys are generally given 10 mg/kg dose. The blood samples (0.3 mL) are drawn at 0.25, 0.5, 1.0, 2.0, 3.0, 4.0, 6.0, 8.0, 12 and 24 h time points or 0.083, 0.25, 0.5, 1.0, 2.0, 4.0, 6.0, 8.0 and 24 h time points and centrifuged at 3,000 or 4000 rpm for 2 to 10 min. The plasma solutions are collected, and stored at −20° C. or −70° C. until analyzed by LC/MS/MS as described above.

JAK2 (h) = JAK2 (h) (Homo sapiens (Human), UniProt O60674); assay: JAK2 (h) kinase assay; type: biochemical
Sequence of JAK2 (h) (O60674 whole entry): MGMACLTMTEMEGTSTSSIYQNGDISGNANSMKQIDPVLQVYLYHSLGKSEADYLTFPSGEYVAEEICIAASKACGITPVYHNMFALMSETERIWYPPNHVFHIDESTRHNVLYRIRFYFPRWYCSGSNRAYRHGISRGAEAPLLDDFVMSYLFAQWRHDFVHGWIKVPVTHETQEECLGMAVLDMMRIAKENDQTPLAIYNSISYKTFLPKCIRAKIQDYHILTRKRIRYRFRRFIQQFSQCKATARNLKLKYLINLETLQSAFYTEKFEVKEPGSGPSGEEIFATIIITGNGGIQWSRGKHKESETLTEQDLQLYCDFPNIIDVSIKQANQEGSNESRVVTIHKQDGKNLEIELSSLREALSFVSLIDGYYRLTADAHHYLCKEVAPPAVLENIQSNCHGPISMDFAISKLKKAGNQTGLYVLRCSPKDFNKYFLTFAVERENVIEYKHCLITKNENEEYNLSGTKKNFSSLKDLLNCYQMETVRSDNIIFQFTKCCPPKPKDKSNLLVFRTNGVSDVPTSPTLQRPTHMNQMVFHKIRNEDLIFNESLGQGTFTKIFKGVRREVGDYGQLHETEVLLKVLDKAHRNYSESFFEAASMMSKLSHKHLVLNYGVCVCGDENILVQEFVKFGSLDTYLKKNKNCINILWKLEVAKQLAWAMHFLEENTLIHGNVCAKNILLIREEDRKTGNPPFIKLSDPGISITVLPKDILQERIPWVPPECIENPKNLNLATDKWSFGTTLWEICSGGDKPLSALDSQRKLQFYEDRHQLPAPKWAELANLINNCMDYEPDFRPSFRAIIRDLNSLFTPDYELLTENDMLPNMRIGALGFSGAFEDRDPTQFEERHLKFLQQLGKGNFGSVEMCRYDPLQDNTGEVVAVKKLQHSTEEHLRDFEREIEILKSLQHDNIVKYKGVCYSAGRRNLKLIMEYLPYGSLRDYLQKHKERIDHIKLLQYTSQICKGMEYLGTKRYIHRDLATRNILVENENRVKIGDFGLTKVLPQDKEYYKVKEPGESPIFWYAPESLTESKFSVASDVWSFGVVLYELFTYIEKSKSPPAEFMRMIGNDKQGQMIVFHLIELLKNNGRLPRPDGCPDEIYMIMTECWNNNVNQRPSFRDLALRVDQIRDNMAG
Experimental: (§6) Kinase assays can be performed by measurement of incorporation of γ-^33P ATP into immobilized myelin basic protein (MBP). High binding white 384 well plates (Greiner) are coated with MBP (Sigma #M-1891) by incubation of 60 μL/well of 20 μg/mL MBP in Tris-buffered saline (TBS; 50 mM Tris pH 8.0, 138 mM NaCl, 2.7 mM KCl) for 24 h at 4° C. Plates are washed 3× with 100 μL TBS. Kinase reactions are carried out in a total volume of 34 μL in kinase buffer (5 mM Hepes pH 7.6, 15 mM NaCl, 0.01% bovine gamma globulin (Sigma #I-5506), 10 mM MgCl2, 1 mM DTT, 0.02% TritonX-100). Compound dilutions are performed in DMSO and added to assay wells to a final DMSO concentration of 1%. Each data point is measured in duplicate, and at least two duplicate assays are performed for each individual compound determination. Enzyme is added to final concentrations of 10 nM or 20 nM, for example. A mixture of unlabeled ATP and γ-^33P ATP is added to start the reaction (2×10^6 cpm of γ-^33P ATP per well (3000 Ci/mmole) and 10 μM unlabeled ATP, typically. The reactions are carried out for 1 h at room temperature with shaking Plates are washed 7× with TBS, followed by the addition of 50 μL/well scintillation fluid (Wallac). Plates are read using a Wallac Trilux counter. This is only one format of such assays; various other formats are possible, as known to one skilled in the art. […]

[3] = Compound stability in human liver microsomes; type: in vitro ADME; conditions: for half-life at 5 μM / CLint scaled at 5 μM: pH 7.4; for half-life at 5 μM: read-out: Human T1/2; for CLint scaled at 5 μM: human liver microsomes, in vivo CLint extrapolated
Experimental: as §1, §2, §3, §4, §5

JAK1 (h) = JAK1 (h) (Homo sapiens (Human), UniProt P23458); assay: JAK1 (h) kinase assay; type: biochemical
Sequence of JAK1 (h) (P23458 whole entry): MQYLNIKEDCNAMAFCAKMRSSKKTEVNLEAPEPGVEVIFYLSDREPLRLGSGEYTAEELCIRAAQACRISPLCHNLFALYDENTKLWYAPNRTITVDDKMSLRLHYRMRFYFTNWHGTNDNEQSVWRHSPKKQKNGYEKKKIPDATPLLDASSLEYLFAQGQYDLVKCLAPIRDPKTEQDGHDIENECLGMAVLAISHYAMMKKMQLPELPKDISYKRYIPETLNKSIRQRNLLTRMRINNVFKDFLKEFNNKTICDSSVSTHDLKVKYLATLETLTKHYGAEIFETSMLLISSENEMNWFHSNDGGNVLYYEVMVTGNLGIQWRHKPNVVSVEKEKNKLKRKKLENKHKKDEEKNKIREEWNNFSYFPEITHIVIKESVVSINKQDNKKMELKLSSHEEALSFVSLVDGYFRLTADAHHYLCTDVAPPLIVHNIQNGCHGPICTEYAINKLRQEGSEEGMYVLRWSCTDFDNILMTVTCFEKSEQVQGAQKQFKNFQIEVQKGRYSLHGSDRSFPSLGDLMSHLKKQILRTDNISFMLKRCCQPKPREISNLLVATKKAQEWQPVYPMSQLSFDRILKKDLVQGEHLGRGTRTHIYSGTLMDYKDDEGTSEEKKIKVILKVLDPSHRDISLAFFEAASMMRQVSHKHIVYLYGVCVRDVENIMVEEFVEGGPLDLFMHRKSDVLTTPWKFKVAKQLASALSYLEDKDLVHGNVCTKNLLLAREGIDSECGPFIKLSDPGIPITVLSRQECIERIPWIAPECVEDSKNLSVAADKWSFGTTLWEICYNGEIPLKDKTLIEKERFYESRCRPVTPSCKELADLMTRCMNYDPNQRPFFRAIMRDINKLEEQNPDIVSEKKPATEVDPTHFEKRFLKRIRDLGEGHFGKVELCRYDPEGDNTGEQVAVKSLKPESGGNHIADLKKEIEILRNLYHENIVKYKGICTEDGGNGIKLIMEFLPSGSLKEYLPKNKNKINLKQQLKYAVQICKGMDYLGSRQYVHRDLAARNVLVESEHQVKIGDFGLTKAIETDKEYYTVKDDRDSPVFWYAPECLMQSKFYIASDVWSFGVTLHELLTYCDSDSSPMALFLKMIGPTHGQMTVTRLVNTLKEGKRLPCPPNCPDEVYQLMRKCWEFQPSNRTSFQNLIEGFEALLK
Experimental: Kinase assays can be performed by measurement of incorporation of γ-^33P ATP into immobilized myelin basic protein (MBP). High binding white 384 well plates (Greiner) are coated with MBP (Sigma #M-1891) by incubation of 60 μL/well of 20 μg/mL MBP in Tris-buffered saline (TBS; 50 mM Tris pH 8.0, 138 mM NaCl, 2.7 mM KCl) for 24 h at 4° C. Plates are washed 3× with 100 μL TBS. Kinase reactions are carried out in a total volume of 34 μL in kinase buffer (5 mM Hepes pH 7.6, 15 mM NaCl, 0.01% bovine gamma globulin (Sigma #I-5506), 10 mM MgCl2, 1 mM DTT, 0.02% TritonX-100). Compound dilutions are performed in DMSO and added to assay wells to a final DMSO concentration of 1%. Each data point is measured in duplicate, and at least two duplicate assays are performed for each individual compound determination. Enzyme is added to final concentrations of 10 nM or 20 nM, for example. A mixture of unlabeled ATP and γ-^33P ATP is added to start the reaction (2×10^6 cpm of γ-^33P ATP per well (3000 Ci/mmole) and 10 μM unlabeled ATP, typically. The reactions are carried out for 1 h at room temperature with shaking Plates are washed 7× with TBS, followed by the addition of 50 μL/well scintillation fluid (Wallac). Plates are read using a Wallac Trilux counter. This is only one format of such assays; various other formats are possible, as known to one skilled in the art.
The above assay procedure can be used to determine the IC50 for inhibition and/or the inhibition constant, Ki. The IC50 is defined as the concentration of compound required to reduce the enzyme activity by 50% under the condition of the assay. The IC50 value is estimated by preparing a 10 point curve using a ½ log dilution series (for example, a typical curve may be prepared using the following compound concentrations: 3 μM, 1 μM, 0.3 μM, 0.1 μM, 0.03 μM, 0.01 μM, 0.003 μM, 0.001 μM, 0.0003 μM, and 0 μM).
(§7) The kinase assays described herein were performed at Millipore UK Ltd, Dundee Technology Park, Dundee DD2 1SW, UK.

Aurora-B (h) = Aurora-B (h) (Homo sapiens (Human), UniProt Q96GD4); assay: Aurora-B (h) kinase assay; type: biochemical
Sequence of Aurora-B (h) (Q96GD4 whole entry): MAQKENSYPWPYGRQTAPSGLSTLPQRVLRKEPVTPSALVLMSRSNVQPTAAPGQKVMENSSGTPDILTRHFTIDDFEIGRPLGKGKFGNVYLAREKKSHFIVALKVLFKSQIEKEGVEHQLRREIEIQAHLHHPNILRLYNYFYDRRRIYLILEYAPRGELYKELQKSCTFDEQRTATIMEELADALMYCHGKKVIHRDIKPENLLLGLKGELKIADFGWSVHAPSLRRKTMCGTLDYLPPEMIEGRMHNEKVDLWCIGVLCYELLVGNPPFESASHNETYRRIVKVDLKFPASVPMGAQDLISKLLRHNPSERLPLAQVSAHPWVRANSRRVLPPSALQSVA
Experimental: as §6

Aurora-A (h) = Aurora-A (h) (Homo sapiens (Human), UniProt O14965); assay: Aurora-A (h) kinase assay; type: biochemical
Sequence of Aurora-A (h) (O14965 whole entry): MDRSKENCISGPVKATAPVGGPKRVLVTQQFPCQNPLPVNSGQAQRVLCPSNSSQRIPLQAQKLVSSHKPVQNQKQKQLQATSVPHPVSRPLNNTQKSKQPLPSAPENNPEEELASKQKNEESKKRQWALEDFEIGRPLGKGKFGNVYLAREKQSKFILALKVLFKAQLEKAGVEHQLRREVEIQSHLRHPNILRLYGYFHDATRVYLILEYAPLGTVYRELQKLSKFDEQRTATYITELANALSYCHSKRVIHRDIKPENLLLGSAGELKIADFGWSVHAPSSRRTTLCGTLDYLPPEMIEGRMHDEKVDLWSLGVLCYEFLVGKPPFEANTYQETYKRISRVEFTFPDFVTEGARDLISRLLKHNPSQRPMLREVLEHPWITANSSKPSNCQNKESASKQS
Experimental: Kinase assays can be performed by measurement of incorporation of γ-^33P ATP into immobilized myelin basic protein (MBP). […] Plates are washed 3× with 100 μL TBS. Kinase reactions are carried out in a total volume of 34 μL in kinase buffer (5 mM Hepes pH 7.6, 15 mM NaCl, 0.01% bovine gamma globulin (Sigma #I-5506), 10 mM MgCl2, 1 mM DTT, 0.02% TritonX-100). Compound dilutions are performed in DMSO and added to assay wells to a final DMSO concentration of 1%. Each data point is measured in duplicate, and at least two duplicate assays are performed for each individual compound determination. Enzyme is added to final concentrations of 10 nM or 20 nM, for example.
The above assay procedure can be used to determine the IC50 for inhibition and/or the inhibition constant, Ki. The IC50 is defined as the concentration of compound required to reduce the enzyme activity by 50% under the condition of the assay.
as §7

FLT3 (h) = FLT3 (h) (Homo sapiens (Human), UniProt P36888); assay: FLT3 (h) kinase assay; type: biochemical
Sequence of FLT3 (h) (P36888 27-993): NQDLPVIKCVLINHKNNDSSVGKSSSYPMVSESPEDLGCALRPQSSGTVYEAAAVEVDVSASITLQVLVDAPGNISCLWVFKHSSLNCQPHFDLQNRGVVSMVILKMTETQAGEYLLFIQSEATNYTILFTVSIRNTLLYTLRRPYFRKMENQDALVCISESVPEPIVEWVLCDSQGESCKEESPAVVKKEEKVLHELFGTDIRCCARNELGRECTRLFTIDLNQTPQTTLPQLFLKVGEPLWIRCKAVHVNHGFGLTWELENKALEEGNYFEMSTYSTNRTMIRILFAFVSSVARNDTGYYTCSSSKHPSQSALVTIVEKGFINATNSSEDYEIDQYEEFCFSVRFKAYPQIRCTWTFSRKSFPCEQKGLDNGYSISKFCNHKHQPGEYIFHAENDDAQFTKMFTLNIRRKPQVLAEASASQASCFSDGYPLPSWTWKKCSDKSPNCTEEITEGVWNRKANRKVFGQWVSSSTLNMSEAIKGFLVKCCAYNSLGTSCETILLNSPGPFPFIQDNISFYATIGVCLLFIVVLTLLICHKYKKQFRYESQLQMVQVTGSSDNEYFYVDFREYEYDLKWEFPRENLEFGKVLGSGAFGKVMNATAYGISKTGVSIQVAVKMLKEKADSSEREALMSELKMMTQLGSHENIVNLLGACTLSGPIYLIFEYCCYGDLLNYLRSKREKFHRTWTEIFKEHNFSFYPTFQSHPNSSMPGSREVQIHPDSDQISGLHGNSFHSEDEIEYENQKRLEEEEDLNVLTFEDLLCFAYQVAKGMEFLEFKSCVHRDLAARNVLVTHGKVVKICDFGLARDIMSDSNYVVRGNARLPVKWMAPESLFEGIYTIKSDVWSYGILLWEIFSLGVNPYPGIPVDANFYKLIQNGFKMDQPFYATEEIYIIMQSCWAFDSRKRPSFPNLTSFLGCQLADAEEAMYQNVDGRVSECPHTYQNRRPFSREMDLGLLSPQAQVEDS
Experimental: as §6

[4] = human liver microsomes 0.5 mg protein/mL, compound 5 μM, NADPH 1.0 mM, 37° C.

Row | Compound | half-life at 5 μM [1] [min] | CLint scaled at 5 μM [1] [mL/min/kg] | Cl/F [2] [L/h/kg] | AUC(0-t) [2] [ng·h/mL] | half-life [2] [min] | Vd [2] [L/kg] | half-life at 5 μM [3, 4] [min] | CLint scaled at 5 μM [3] [mL/min/kg] | IC50 (JAK1 (h)) [nM] | IC50 (Aurora-B (h)) [nM] | IC50 (Aurora-A (h)) [nM] | IC50 (FLT3 (h)) [nM] | Human T1/2 [3, 4] | IC50 (JAK2 (h)) [nM]
1 | CN(c1nc(Nc2cnn(C)c2)ncc1Cl)C1COC2C(O)COC21 (stereo not drawn) [Ex. 1, 6-((5-chloro-2-((l-methyl-1H-pyrazol-4-yl)amino)pyrimidin-4-yl)(methyl)amino)hexahydrofuro[3,2-b]furan-3-ol] | 1240 | 2.01 | 1.09 | 929 | 72 | 1.22 | 1970 | 0.88 | 261 | – | – | – | – | 689
2 | Cn1cc(Nc2ncc(Cl)c(NC3COC4C(NS(C)(=O)=O)COC34)n2)cn1 (stereo not drawn) [Ex. 8, N-(6-((5-chloro-2-((1-methyl-1H-pyrazol-4-yl)amino)pyrimidin-4-yl)amino)hexahydrofuro[3,2-b]furan-3-yl)methanesulfonamide] | 98.5 | 25.2 | 3.82 | 259 | 20.4 | 1.39 | 377 | 4.61 | 31 | 31 | 51 | 11 | – | –
3 | Cc1cnc(Nc2cnn(C)c2)nc1NC1COC2C(O)COC12 (stereo not drawn) [Ex. 3, 6-((5-methyl-2-((1-methyl-1H-pyrazol-4-yl)amino)pyrimidin-4-yl)amino) hexahydrofuro[3,2-b]furan-3-ol] | – | – | – | – | – | – | – | – | 78 | – | – | – | – | –

The next lines start with results.

Row | half-life at 5 μM [1] [min] | CLint scaled at 5 μM [1] [mL/min/kg] | Cl/F [2] [L/h/kg] | AUC(0-t) [2] [ng·h/mL] | half-life [2] [min] | Vd [2] [L/kg] | half-life at 5 μM [3, 4] [min] | CLint scaled at 5 μM [3] [mL/min/kg] | IC50 (JAK1 (h)) [nM] | IC50 (Aurora-B (h)) [nM] | IC50 (Aurora-A (h)) [nM] | IC50 (FLT3 (h)) [nM] | Human T1/2 [3, 4] | Compound | IC50 (JAK2 (h)) [nM]
4 | 727 | 3.42 | 1.50 | 621 | 176 | 3.02 | – | – | 61 | 50 | – | 57 | ∞ | Cn1cc(Nc2ncc(Cl)c(NC3COC4C(OCCO)COC34)n2)cn1 (stereo not drawn) [Ex. 5, 2-((6-((5-chloro-2-((l-methyl-1H-pyrazol-4-yl)amino)pyrimidin-4-yl)amino)hexahydrofuro[3,2-b]furan-3-yl)oxy)ethanol] | –
5 | – | – | – | – | – | – | – | – | – | – | 99 | – | – | Cn1cc(Nc2ncc(Cl)c(NC3COC4C(N)COC34)n2)cn1 (stereo not drawn) [Ex. 7, N^4-(6-aminohexahydrofuro[3,2-b]furan-3-yl)-5-chloro-N^2-(1-methyl-1H-pyrazol-4-yl)pyrimidine-2,4-diamine] | –
6 | 88.8 | 28 | 1.25 | 822 | 49.8 | 1.39 | 91.3 | 19 | – | – | – | – | – | COC1COC2C(Nc3nc(Nc4cnn(C)c4)ncc3Cl)COC12 (stereo not drawn) [Ex. 6, 5-chloro-N^4-(6-methoxyhexahydrofuro[3,2-b]furan-3-yl)-N^2-(1-methyl-1H-pyrazol-4-yl)pyrimidine-2,4-diamine] | –

Reference: patent US9394281B2, “Substituted heteroaryl compounds and methods of use” (Calitor Sciences, LLC, priority 2014, dated 2016)
